Data as given in PubChem BioAssay AID1919017 (Molecular Pharmacology Branch, DTP, NCI, 2023).

System: SW1271 complex spheroids with HUVEC/MSC, growth, % test/control
Assay: Anticancer human tumor SW1271 cell line growth inhibition [AhR];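 note: spheroids exposed to agents for 7 days before readout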
Conditions: for IC50: curve of first compound; for viability, T/C: stronger effect = lower value
Source text: Multicellular complex tumor spheroid response to aryl hydrocarbon receptor antagonists in combination with a variety of drugs and investigational agents in selected tumor cell lines
The current study was undertaken to assess response to aryl hydrocarbon receptor antagonists in combination with standard-of-care drugs and investigational agents in solid tumor complex spheroid models. Complex spheroids include a stromal component modeled by human endothelial cells (HUVEC) and fibroblasts modeled by human mesenchymal stem cells (MSCs). The concentration ranges selected for each drug and investigational agent were based upon clinically achievable concentrations if the clinical Cmax of the agent was known.
Compounds. The drugs and investigational agents: BAY 2416964 (NSC825713), GNF351 (NSC835774), CH-223191 (NSC835775), CPI-455 (NSC825282), aza-TdCyd (NSC777586), decitabine (NSC127716), belinostat (NSC758774), entinostat (NSC756642), pevonedistat (NSC761192), tazemetostat (NSC777109), talazoparib (NSC765396), olaparib (NSC753686), selinexor (NSC780203), nedisertib (M3814, NSC802822), bortezomib (NSC756655), venetoclax (NSC766270), doxorubicin (NSC123127), elimusertib (BAY189344, NSC800525), ceralasertib (AZD6738, NSC777638), TAK-243 (NSC785004), alisertib (NSC759677), etoposide (NSC141540), topotecan (NSC609699), eribulin (NSC707389), gemcitabine (NSC613327), carboplatin (NSC241240), cisplatin (NSC119875), and SN-38 (NSC673596) were obtained from the National Cancer Institute (NCI) Developmental Therapeutics Program Chemical Repository (32). The FDA-approved anticancer drug set is available from the Developmental Therapeutics Program at https://dtp.cancer.gov/organization/dscb/obtaining/available plates.htm. […] The stock solutions were prepared in dimethyl sulfoxide (DMSO, Sigma-Aldrich, St. Louis, MO, cat. D2650), except for the platinum compounds which were prepared in saline (Quality Biological, Gaithersburg, MD, cat. 114-055-101), at 800-fold the tested concentration and stored at -70 degrees C prior to their use. All drugs and investigational agents were tested over a range starting from a high concentration at or near the clinical Cmax and decreasing in half-log increments. If the clinical Cmax for an agent had not been determined, the highest concentration tested was 10 microM (Table 1).
Cell Culture. All cells were maintained in an incubator at 37 degrees C and 5% CO2 with 95% humidity. The PDC lines were cultured according to standard operating procedures established by the NCI PDMR (https://pdmr.cancer.gov). Briefly, all PDCs were thawed and cultured in Matrigel-coated flasks prepared with a working solution of 1X Ham's F-12 nutrient mix, without supplementation (Invitrogen, Waltham, MA, cat. 11765054), 100 U/mL penicillin-streptomycin (Invitrogen, cat. 15140122), and 2.5% Matrigel (Corning Inc., Corning, NY, cat. 354248) for the first three passages. All PDCs were cultured in complete DMEM/F-12 media containing advanced DMEM/F-12 (Invitrogen, cat. 12634028), 4.9% defined fetal bovine serum, heat inactivated (HyClone Laboratories Inc., Logan, UT, cat. SH30070.03HI), 389 ng/mL hydrocortisone (Sigma-Aldrich, cat. H4001), 9.7 ng/mL human EGF recombinant protein (Invitrogen, cat. PHG0313), 23.4 microg/mL adenine (Sigma-Aldrich, cat. A2786), 97.3 U/mL penicillin-streptomycin (Invitrogen, cat. 15140122), 1.9 mM L-glutamine (Invitrogen, cat. 25030081), and 9.7 microM Y-27632 dihydrochloride (Tocris Bioscience, Bristol, United Kingdom, cat. 1254). The PDCs were cultured in complete DMEM/F12 media without 10 microM Y-27632 dihydrochloride for at least two passages prior to the screen. The established cell lines NCI-H1341 and […] were cultured in DMEM/F-12, HEPES (Invitrogen, cat. 11330032), 5% defined fetal bovine serum (HyClone Laboratories Inc., cat. SH30070.03), ITS premix universal culture supplement [insulin (5 microg/mL), transferrin (5 microg/mL), and selenious acid (5 ng/mL)] […]

[1] = second compound 0.1 µM, first compound 0.0316 µM
[2] = second compound 0.1 µM, first compound 0.1 µM
[3] = second compound 0.1 µM, first compound 0.316 µM
[4] = second compound 0.1 µM, first compound 1 µM
[5] = second compound 0.1 µM, first compound 3.16 µM
[6] = second compound 0.1 µM, first compound 10 µM
[7] = second compound 0.316 µM, first compound 0.0316 µM
[8] = second compound 0.316 µM, first compound 0.1 µM
[9] = second compound 0.316 µM, first compound 0.316 µM
[10] = second compound 0.316 µM, first compound 1 µM
[11] = second compound 0.316 µM, first compound 3.16 µM
[12] = second compound 0.316 µM, first compound 10 µM
[13] = second compound 1 µM, first compound 0.0316 µM
[14] = second compound 1 µM, first compound 0.1 µM
[15] = second compound 1 µM, first compound 0.316 µM
[16] = second compound 1 µM, first compound 1 µM
[17] = second compound 1 µM, first compound 3.16 µM
[18] = second compound 1 µM, first compound 10 µM
[19] = second compound 3.16 µM, first compound 0.0316 µM
[20] = second compound 3.16 µM, first compound 0.1 µM
[21] = second compound 3.16 µM, first compound 0.316 µM
[22] = second compound 3.16 µM, first compound 1 µM
[23] = second compound 3.16 µM, first compound 3.16 µM
[24] = second compound 3.16 µM, first compound 10 µM
[25] = second compound 10 µM, first compound 0.0316 µM
[26] = second compound 10 µM, first compound 0.1 µM
[27] = second compound 10 µM, first compound 0.316 µM
[28] = second compound 10 µM, first compound 1 µM
[29] = second compound 10 µM, first compound 3.16 µM
[30] = second compound 10 µM, first compound 10 µM

Row | SMILES | IC50 (second compound 0.1 µM) [µM] | IC50 (second compound 0.316 µM) [µM] | IC50 (second compound 1 µM) [µM] | IC50 (second compound 3.16 µM) [µM] | IC50 (second compound 10 µM) [µM] | viability, T/C [1] [%] | viability, T/C [2] [%] | viability, T/C [3] [%] | viability, T/C [4] [%] | viability, T/C [5] [%] | viability, T/C [6] [%] | viability, T/C [7] [%] | viability, T/C [8] [%] | viability, T/C [9] [%] | viability, T/C [10] [%] | viability, T/C [11] [%] | viability, T/C [12] [%] | viability, T/C [13] [%] | viability, T/C [14] [%] | viability, T/C [15] [%] | other results
1 | Nc1ccn(C2OC(CO)C(O)C2(F)F)c(=O)n1 (stereo not given) + CC(CO)NC(=O)c1cc(-c2ccc(Cl)cc2)nn(-c2cnn(C)c2)c1=O | > 10 | 2.07 | > 10 | 3.71 | 5.27 | 59 | 55 | 52.6 | 60.9 | 54.9 | 63.9 | 56.5 | 59.8 | 46.3 | 50.3 | 54.9 | 46.1 | 53.1 | 60.3 | 59 | viability, T/C [16]: 61.2%; viability, T/C [17]: 53.6%; viability, T/C [18]: 55.3%; viability, T/C [19]: 48.4%; viability, T/C [20]: 58.7%; viability, T/C [21]: 56.1%; viability, T/C [22]: 59.4%; viability, T/C [23]: 47.8%; viability, T/C [24]: 42.4%; viability, T/C [25]: 45.3%; viability, T/C [26]: 58.1%; viability, T/C [27]: 57.4%; viability, T/C [28]: 59.8%; viability, T/C [29]: 54.5%; viability, T/C [30]: 44%
2 | O=C(c1cc(Cc2n[nH]c(=O)c3ccccc23)ccc1F)N1CCN(C(=O)C2CC2)CC1 + CC(CO)NC(=O)c1cc(-c2ccc(Cl)cc2)nn(-c2cnn(C)c2)c1=O | > 10 | > 10 | > 10 | > 10 | > 10 | 84.4 | 95.4 | 100 | 82.1 | 88.2 | 78.8 | 79.8 | 77.9 | 75.8 | 81.8 | 77.7 | 75.8 | 79.7 | 99.7 | 83.8 | viability, T/C [16]: 67.8%; viability, T/C [17]: 78%; viability, T/C [18]: 103%; viability, T/C [19]: 76.9%; viability, T/C [20]: 79.3%; viability, T/C [21]: 79.8%; viability, T/C [22]: 92.2%; viability, T/C [23]: 68.5%; viability, T/C [24]: 82.5%; viability, T/C [25]: 67.8%; viability, T/C [26]: 67.3%; viability, T/C [27]: 76.2%; viability, T/C [28]: 81.7%; viability, T/C [29]: 81.2%; viability, T/C [30]: 60.6%
